Experimental data taken from patent US20220160901A1, “Stimuli-Responsive Compositions, Imaging Systems, and Methods for Using the Same for Biomedical Applications” (The Regents of the University of California, priority 2019, published 2022).

Assay: T1 values measured using NMR
Set-up: unit not given here

Fe(Me-bik)3](BF4)2.25H2O
T1 at 23° C. (1 mg/mL): 2.9433 | T1 at 40° C. (1 mg/mL): 4.2093 | T1 at 60° C. (1 mg/mL): 5.3784 | T1 at 23° C. (2 mg/mL): 2.8944 | T1 at 40° C. (2 mg/mL): 3.9614 | T1 at 60° C. (2 mg/mL): 4.9954 | T1 at 23° C. (4 mg/mL): 2.7392 | T1 at 40° C. (4 mg/mL): 3.4784 | T1 at 60° C. (4 mg/mL): 4.2761 | T1 at 23° C. (8 mg/mL): 2.7413 | T1 at 40° C. (8 mg/mL): 3.434 | T1 at 60° C. (8 mg/mL): 4.172
